Experimental findings from patent publication US11780893B2, “Kv1.3 blockers” (Zealand Pharma A/S, priority 2019, dated 2023) are described below.

Bridge positions count the residues as written; N and C are the ends. Square brackets hold non-standard residues; d marks the D form. Peptide text beside a SMILES is read from it. Nle = CCCC[C@H](N)C(=O)O

One data set has as its target T1, Kv1.2 (Homo sapiens, UniProt P16389).
T1 construct: expressed in transfected cells; host or cells: Chinese Hamster Ovary (CHO)
The data set can be described thus: cell-based. The following applies: CHO cells, whole-cell patch clamp; read-out: Potency IC50 (nM) Kv1.2.

The target in the next data set is T2, Kv1.3 (Homo sapiens, UniProt P22001).
T2 construct: expressed in transfected cells; host or cells: Chinese Hamster Ovary (CHO)
Nature of the data set: cell-based. The note with it: CHO cells, whole-cell patch clamp; read-out: Potency IC50 (nM) Kv1.3. A general note: Patch clamp records ionic current or voltage across a cell membrane.

The next data set is described as follows: in vivo. The note with it: male, rat, sc, 70 nmol/kg.
For another data set, the target named is T3, Kv1.6 (Homo sapiens, UniProt P17658).
T3 construct: expressed in transfected cells; host or cells: Chinese Hamster Ovary (CHO)
The data set can be described thus: cell-based. The following applies: for IC50: CHO cells, whole-cell patch clamp, read-out: Potency IC50 (nM) Kv1.6; for Selectivity Kv1.6/Kv1.3: ratio IC50[Kv1.6]/IC50[Kv1.3].

In a further data set the target is T4, Kv1.1 (Homo sapiens, UniProt Q09470).
T4 construct: expressed in transfected cells; host or cells: Chinese Hamster Ovary (CHO)
Nature of the data set: cell-based. The note with it: for IC50: CHO cells, whole-cell patch clamp, read-out: Potency IC50 (nM) Kv1.1; for Selectivity Kv1.1/Kv1.3: ratio IC50[Kv1.1]/IC50[Kv1.3].

The target of data set [1] is T5, human Kv1.3 voltage-gated K+ channel (Homo sapiens, UniProt P22001).
T5 construct: host or cells: CHO-DUKX
The data set can be described thus: cell-based. The following applies: inhibition of thallium flux, CHO-DUKX cells with human Kv1.3; read-out: IC50.

The next data set has as its target Rat whole blood (Rattus norvegicus, UniProt P15384).

T3 sequence (P17658 whole entry): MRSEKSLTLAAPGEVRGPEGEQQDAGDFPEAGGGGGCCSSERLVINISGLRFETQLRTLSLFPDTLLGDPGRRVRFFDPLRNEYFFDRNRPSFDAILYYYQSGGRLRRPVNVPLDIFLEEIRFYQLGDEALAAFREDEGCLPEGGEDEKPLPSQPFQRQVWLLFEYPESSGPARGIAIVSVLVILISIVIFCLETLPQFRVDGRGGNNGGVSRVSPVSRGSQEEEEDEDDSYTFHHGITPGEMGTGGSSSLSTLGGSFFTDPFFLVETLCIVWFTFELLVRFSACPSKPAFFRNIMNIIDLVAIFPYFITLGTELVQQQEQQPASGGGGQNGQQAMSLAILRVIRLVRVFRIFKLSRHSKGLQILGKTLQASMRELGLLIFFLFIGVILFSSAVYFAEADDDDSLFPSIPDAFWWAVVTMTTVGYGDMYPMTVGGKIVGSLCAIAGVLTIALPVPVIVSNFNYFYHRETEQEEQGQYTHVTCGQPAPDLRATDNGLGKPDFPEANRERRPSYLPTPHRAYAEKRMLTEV
T2 sequence (P22001 whole entry): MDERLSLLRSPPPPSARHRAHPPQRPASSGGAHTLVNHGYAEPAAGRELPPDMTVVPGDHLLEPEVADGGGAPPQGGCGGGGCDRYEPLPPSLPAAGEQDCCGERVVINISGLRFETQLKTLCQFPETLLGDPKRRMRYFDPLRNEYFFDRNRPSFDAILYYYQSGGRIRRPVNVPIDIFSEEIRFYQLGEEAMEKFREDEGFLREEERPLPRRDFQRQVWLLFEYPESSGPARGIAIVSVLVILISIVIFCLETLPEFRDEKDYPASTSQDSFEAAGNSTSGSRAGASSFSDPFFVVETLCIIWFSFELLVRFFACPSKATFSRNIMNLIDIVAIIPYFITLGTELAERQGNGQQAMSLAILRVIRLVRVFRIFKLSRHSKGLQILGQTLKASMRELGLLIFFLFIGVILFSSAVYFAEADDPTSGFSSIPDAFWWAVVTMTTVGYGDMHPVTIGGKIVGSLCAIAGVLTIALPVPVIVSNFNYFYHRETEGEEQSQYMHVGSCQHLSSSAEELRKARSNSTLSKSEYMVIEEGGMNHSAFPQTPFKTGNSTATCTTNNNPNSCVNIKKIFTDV
T5 sequence (P22001 whole entry): as above
T4 sequence (Q09470 whole entry): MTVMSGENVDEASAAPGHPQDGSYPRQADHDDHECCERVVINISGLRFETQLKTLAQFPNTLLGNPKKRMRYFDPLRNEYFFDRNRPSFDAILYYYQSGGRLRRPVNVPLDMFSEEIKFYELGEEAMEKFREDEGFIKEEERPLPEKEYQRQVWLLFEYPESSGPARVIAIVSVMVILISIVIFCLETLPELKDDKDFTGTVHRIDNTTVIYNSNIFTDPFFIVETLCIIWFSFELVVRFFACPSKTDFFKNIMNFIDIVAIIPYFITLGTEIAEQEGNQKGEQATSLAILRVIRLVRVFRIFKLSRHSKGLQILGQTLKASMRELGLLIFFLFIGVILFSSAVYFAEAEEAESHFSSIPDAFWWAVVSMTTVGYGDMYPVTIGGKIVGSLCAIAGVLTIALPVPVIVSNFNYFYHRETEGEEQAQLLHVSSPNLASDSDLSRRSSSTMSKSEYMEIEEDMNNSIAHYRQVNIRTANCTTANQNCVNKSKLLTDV
T1 sequence (P16389 whole entry): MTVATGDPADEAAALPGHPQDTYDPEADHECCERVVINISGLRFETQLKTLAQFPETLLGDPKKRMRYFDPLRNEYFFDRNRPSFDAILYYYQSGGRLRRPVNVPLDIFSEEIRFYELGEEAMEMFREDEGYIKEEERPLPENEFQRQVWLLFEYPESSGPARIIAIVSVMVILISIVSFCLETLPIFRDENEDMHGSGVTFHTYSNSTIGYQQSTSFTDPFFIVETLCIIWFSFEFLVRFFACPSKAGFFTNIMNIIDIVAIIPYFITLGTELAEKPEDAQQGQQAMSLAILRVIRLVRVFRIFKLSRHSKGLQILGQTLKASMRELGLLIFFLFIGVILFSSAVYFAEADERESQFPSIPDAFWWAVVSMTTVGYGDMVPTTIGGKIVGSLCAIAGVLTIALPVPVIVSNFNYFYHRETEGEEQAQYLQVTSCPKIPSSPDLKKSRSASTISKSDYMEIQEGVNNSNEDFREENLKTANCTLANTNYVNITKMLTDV
Rat whole blood, sequence (P15384 whole entry): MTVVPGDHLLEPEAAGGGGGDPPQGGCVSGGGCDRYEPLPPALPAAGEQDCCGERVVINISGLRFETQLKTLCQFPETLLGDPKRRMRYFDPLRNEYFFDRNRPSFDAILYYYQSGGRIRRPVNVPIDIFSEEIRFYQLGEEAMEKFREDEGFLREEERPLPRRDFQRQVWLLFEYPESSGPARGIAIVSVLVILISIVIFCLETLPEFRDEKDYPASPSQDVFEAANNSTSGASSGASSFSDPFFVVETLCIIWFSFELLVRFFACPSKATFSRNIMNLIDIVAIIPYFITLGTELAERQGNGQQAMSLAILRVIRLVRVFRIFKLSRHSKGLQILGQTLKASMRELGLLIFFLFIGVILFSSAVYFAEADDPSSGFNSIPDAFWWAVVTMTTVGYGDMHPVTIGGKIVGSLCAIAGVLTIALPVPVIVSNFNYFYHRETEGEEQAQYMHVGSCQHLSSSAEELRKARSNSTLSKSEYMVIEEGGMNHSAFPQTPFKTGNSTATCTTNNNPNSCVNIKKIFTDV

The IC50 is the concentration that gives 50% inhibition. The term AUC(0-inf) denotes total exposure, with the tail of the curve extrapolated. High values mean more exposure, low ones less exposure. As usually defined, the Cmax is the maximum level reached in the sampled fluid or tissue. The term half-life denotes how long it takes for the measured level to halve. Low readings indicate rapid decline, high ones slow decline. Turning to `CC[C@H](C)[C@@H]1NC(=O)[C@H](C)NC(=O)[C@H](CCCCN)NC(=O)[C@H](CC(C)C)NC(=O)[C@@H]2CSSC[C@@H](C(=O)N[C@@H](Cc3ccc(O)cc3)C(=O)N3CCC[C@H]3C(=O)N[C@@H](CCCNC(=N)N)C(=O)O)NC(=O)[C@H](CCCCN)NC(=O)[C@@H]3CSSC[C@H](NC(=O)[C@H](CCC(=O)O)NC(=O)[C@H](C(C)C)NC(=O)[C@H](CO)NC(=O)[C@H](C)NC(=O)[C@H](CO)NC(=O)[C@@H](NC(=O)[C@H](CCCNC(=N)N)NC(=O)[C@H](CCSC)NC(=O)[C@H](CC(=O)O)NC(=O)[C@@H](NC(=O)[C@@H](N)CC(N)=O)[C@@H](C)CC)CSSC[C@H](NC(=O)[C@H](CCCCN)NC(=O)CNC(=O)[C@H](Cc4ccccc4)NC(=O)[C@H]([C@@H](C)CC)NC(=O)[C@H](CO)NC(=O)CNC1=O)C(=O)N[C@@H](CCSC)C(=O)N[C@@H](CC(N)=O)C(=O)N[C@@H](CCCCN)C(=O)N[C@@H](CCCCN)C(=O)N3)C(=O)N[C@@H](CCCCN)C(=O)N[C@@H](CCC(N)=O)C(=O)N[C@@H](CCCCN)C(=O)N2` [Compound 8] (H-NIDMRCSASVECKQKCLKAIGSIFGKCMNKKCKCYPR-OH; disulfide 6-27, 12-32, 16-34), the IC50 at Kv1.2 is 376 nM. Moreover, the IC50 at Kv1.3 was found to be 0.44 nM. Further, in “in vivo”, the total exposure AUC(0-inf) is 0.0983 µM·h, the highest concentration (Cmax) was 76.9 nM and the half-life was 37.2 min. On Kv1.6, the IC50 is greater than 3000 nM and the “Selectivity Kv1.6/Kv1.3” value was greater than 6800. Moreover, on Kv1.1, the IC50 is greater than 3000 nM and the “Selectivity Kv1.1/Kv1.3” value is greater than 6800. The 50% inhibitory concentration (IC50) in data set [1] was found to be 0.47 nM.

In the case of `CC[C@H](C)[C@@H]1NC(=O)[C@H](C)NC(=O)[C@H](Cc2ccc(O)cc2)NC(=O)[C@H](CC(C)C)NC(=O)[C@@H]2CSSC[C@@H](C(=O)N[C@@H](Cc3ccc(O)cc3)C(=O)N3CCC[C@H]3C(=O)N[C@@H](CCCNC(=N)N)C(N)=O)NC(=O)[C@H](CCCCN)NC(=O)[C@@H]3CSSC[C@H](NC(=O)[C@H](CCC(=O)O)NC(=O)[C@H](C(C)C)NC(=O)[C@H](CO)NC(=O)[C@H](C)NC(=O)[C@H](CO)NC(=O)[C@@H](NC(=O)[C@H](CCCNC(=N)N)NC(=O)[C@H](CCSC)NC(=O)[C@H](CC(=O)O)NC(=O)[C@H](CCSC)NC(=O)[C@@H](N)CC(N)=O)CSSC[C@H](NC(=O)[C@H](CCCCN)NC(=O)CNC(=O)[C@H](Cc4ccccc4)NC(=O)[C@H]([C@@H](C)CC)NC(=O)[C@H](CO)NC(=O)CNC1=O)C(=O)N[C@@H](CCSC)C(=O)N[C@@H](CC(N)=O)C(=O)N[C@@H](CCCCN)C(=O)N[C@@H](CCCCN)C(=O)N3)C(=O)N[C@@H](CCCCN)C(=O)N[C@@H](CCC(N)=O)C(=O)N[C@@H](CCCCN)C(=O)N2` [Compound 53] (H-NMDMRCSASVECKQKCLYAIGSIFGKCMNKKCKCYPR-NH2; disulfide 6-27, 12-32, 16-34), the IC50 on Kv1.2 is 149 nM. For the same molecule, the IC50 on Kv1.3 turned out to be 0.29 nM. In the data set “in vivo”, this molecule gave an AUC(0-inf) of 0.0311 µM·h, a Cmax of 50 nM and a half-life of 52.2 min. Besides, on Kv1.6, the IC50 was greater than 3000 nM and the “Selectivity Kv1.6/Kv1.3” value is listed as greater than 10300. Also, on Kv1.1, the half-maximal inhibitory concentration (IC50) is greater than 3000 nM and the “Selectivity Kv1.1/Kv1.3” value was greater than 10300. Further, the IC50 in data set [1] is 0.12 nM.

`CCCC[C@@H]1NC(=O)[C@@H]2CSSC[C@H](NC(=O)[C@H](CCCNC(=N)N)NC(=O)[C@H](CC(C)C)NC(C)=O)C(=O)N[C@@H](CO)C(=O)N[C@@H](C)C(=O)N[C@@H](CO)C(=O)N[C@@H](C(C)C)C(=O)N[C@@H](CCC(=O)O)C(=O)N[C@H]3CSSC[C@H](NC(=O)[C@H](CCCCN)NC(=O)[C@H](CCCCN)NC(=O)[C@H](CC(N)=O)NC1=O)C(=O)N[C@@H](CCCCN)C(=O)N[C@H](C(=O)N[C@@H](Cc1ccc(O)cc1)C(=O)N1CCC[C@H]1C(=O)N[C@@H](CCCNC(=N)N)C(N)=O)CSSC[C@H](NC(=O)[C@H](CCCCN)NC(=O)[C@H](CCC(N)=O)NC(=O)[C@H](CCCCN)NC3=O)C(=O)N[C@@H](CC(C)C)C(=O)N[C@@H](CCCCN)C(=O)N[C@@H](C)C(=O)N[C@@H]([C@@H](C)CC)C(=O)NCC(=O)N[C@@H](CO)C(=O)N[C@@H]([C@@H](C)CC)C(=O)N[C@@H](Cc1ccccc1)C(=O)NCC(=O)N[C@@H](CCCCN)C(=O)N2` [Compound 108] (Ac-LRCSASVECKQKCLKAIGSIFGKC[Nle]NKKCKCYPR-NH2; disulfide 3-24, 9-29, 13-31): the 50% inhibitory concentration (IC50) was 122 nM at Kv1.2; 0.35 nM on Kv1.3; no more than 1 nM against Rat whole blood; 2460 nM at Kv1.6; greater than 3000 nM on Kv1.1; 0.1 nM in data set [1]. Further, on Kv1.1, the “Selectivity Kv1.1/Kv1.3” value was greater than 8700.

For the molecule `CCCC[C@H](NC(=O)[C@H](CC(=O)O)NC(=O)[C@H](CCCC)NC(=O)[C@@H](N)CO)C(=O)N[C@@H](CCCNC(=N)N)C(=O)N[C@H]1CSSC[C@@H]2NC(=O)[C@H](CCCCN)NC(=O)CNC(=O)[C@H](Cc3ccccc3)NC(=O)[C@H]([C@@H](C)CC)NC(=O)[C@H](CO)NC(=O)CNC(=O)[C@H]([C@@H](C)CC)NC(=O)[C@H](C)NC(=O)[C@H](CCCCN)NC(=O)[C@H](CC(C)C)NC(=O)[C@@H]3CSSC[C@@H](C(=O)N[C@@H](Cc4ccc(O)cc4)C(=O)N4CCC[C@H]4C(=O)N[C@@H](CCCNC(=N)N)C(N)=O)NC(=O)[C@H](CCCCN)NC(=O)[C@H](CSSC[C@H](NC(=O)[C@H](CCC(=O)O)NC(=O)[C@H](C(C)C)NC(=O)[C@H](CO)NC(=O)[C@H](C)NC(=O)[C@H](CO)NC1=O)C(=O)NCC(=O)N[C@@H](CCC(N)=O)C(=O)N[C@@H](CCCCN)C(=O)N3)NC(=O)[C@H](CCCCN)NC(=O)[C@H](CCCCN)NC(=O)[C@H](CC(N)=O)NC(=O)[C@H](CCSC)NC2=O` [Compound 71] (H-S[Nle]D[Nle]RCSASVECGQKCLKAIGSIFGKCMNKKCKCYPR-NH2; disulfide 6-27, 12-32, 16-34), the half-inhibitory concentration (IC50) on Kv1.2 is 373 nM; at Kv1.3, 0.11 nM; at Rat whole blood it was no more than 1 nM; on Kv1.6, greater than 3000 nM; on Kv1.1 it was greater than 3000 nM; in data set [1], 0.1 nM. In addition, at Kv1.6, the “Selectivity Kv1.6/Kv1.3” value is listed as greater than 27700. Besides, the “Selectivity Kv1.1/Kv1.3” value on Kv1.1 is recorded as greater than 27700.

On to `CCCC[C@@H]1NC(=O)[C@@H]2CSSC[C@H](NC(=O)[C@H](CCCNC(=N)N)NC(=O)[C@H](CCCC)NC(=O)[C@H](CC(=O)O)NC(=O)[C@H](CCCC)NC(=O)[C@@H](N)CC(N)=O)C(=O)N[C@@H](CCCNC(=N)N)C(=O)N[C@@H](C)C(=O)N[C@@H](CO)C(=O)N[C@@H](C(C)C)C(=O)N[C@@H](CCC(=O)O)C(=O)N[C@H]3CSSC[C@H](NC(=O)[C@H](CCCCN)NC(=O)[C@H](CCCCN)NC(=O)[C@H](CC(N)=O)NC1=O)C(=O)N[C@@H](CCCCN)C(=O)N[C@H](C(=O)N[C@@H](Cc1ccc(O)cc1)C(=O)N1CCC[C@H]1C(=O)N[C@@H](CCCNC(=N)N)C(N)=O)CSSC[C@H](NC(=O)[C@H](CCCCN)NC(=O)[C@H](CCC(N)=O)NC(=O)[C@H](CCCCN)NC3=O)C(=O)N[C@@H](CC(C)C)C(=O)N[C@@H](CCCCN)C(=O)N[C@@H](C)C(=O)N[C@@H]([C@@H](C)CC)C(=O)NCC(=O)N[C@@H](CO)C(=O)N[C@@H]([C@@H](C)CC)C(=O)N[C@@H](Cc1ccccc1)C(=O)NCC(=O)N[C@@H](CCCCN)C(=O)N2` [Compound 42] (H-N[Nle]D[Nle]RCRASVECKQKCLKAIGSIFGKC[Nle]NKKCKCYPR-NH2; disulfide 6-27, 12-32, 16-34), for which the IC50 on Kv1.2 is 109 nM; at Kv1.3 it was 0.16 nM; at Rat whole blood it was no more than 1 nM; at Kv1.6, 316 nM; on Kv1.1, greater than 3000 nM; in data set [1], 0.087 nM. Besides, the “Selectivity Kv1.1/Kv1.3” value on Kv1.1 was greater than 18600.

`CC[C@H](C)[C@@H]1NC(=O)[C@H](C)NC(=O)[C@H](CCCCN)NC(=O)[C@H](CC(C)C)NC(=O)[C@@H]2CSSC[C@@H](C(=O)N[C@@H](Cc3ccc(O)cc3)C(=O)N3CCC[C@H]3C(=O)N[C@@H](CCCNC(=N)N)C(N)=O)NC(=O)[C@H](Cc3c[nH]cn3)NC(=O)[C@@H]3CSSC[C@H](NC(=O)[C@H](CCC(=O)O)NC(=O)[C@H](C(C)C)NC(=O)[C@H](CO)NC(=O)[C@H](C)NC(=O)[C@H](CO)NC(=O)[C@@H](NC(=O)[C@H](CCCNC(=N)N)NC(=O)[C@H](CCSC)NC(=O)[C@H](CC(=O)O)NC(=O)[C@H](CCSC)NC(=O)[C@@H](N)CC(N)=O)CSSC[C@H](NC(=O)[C@H](CCCCN)NC(=O)CNC(=O)[C@H](Cc4ccccc4)NC(=O)[C@H]([C@@H](C)CC)NC(=O)[C@H](CO)NC(=O)CNC1=O)C(=O)N[C@@H](CCSC)C(=O)N[C@@H](CC(N)=O)C(=O)N[C@@H](CCCCN)C(=O)N[C@@H](CCCCN)C(=O)N3)C(=O)N[C@@H](CCCCN)C(=O)N[C@@H](CCC(N)=O)C(=O)N[C@@H](CCCCN)C(=O)N2` [Compound 37] (H-NMDMRCSASVECKQKCLKAIGSIFGKCMNKKCHCYPR-NH2; disulfide 6-27, 12-32, 16-34): the half-maximal inhibitory concentration (IC50) on Kv1.2 was 338 nM; on Kv1.3, 0.19 nM; at Rat whole blood it was no more than 1 nM; at Kv1.6 it was greater than 3000 nM; at Kv1.1 it was greater than 3000 nM; in data set [1], 0.14 nM. The “Selectivity Kv1.6/Kv1.3” value at Kv1.6 is reported as greater than 16100. Also, the “Selectivity Kv1.1/Kv1.3” value on Kv1.1 is on record as greater than 16100.
